Source: patent publication US20260209253A1, “SILVER ION COMPLEX GEMINI QUATERNARY AMMONIUM SALT: PREPARATION METHOD AND APPLICATIONS” (ANHUI KIWI BIOTECH CO., LTD, priority 2023, published 2026)

System: Escherichia coli
Assay: suspension quantitative bactericidal test (2.1.1.7.4, Disinfection Technical Specifications 2002 edition), 30 min
Assay type: cell-based
Settings: for antibacterial performance (in words): Table 3, 0.0015625% and 0.00078125% aqueous solutions
Method: (§1) Referring to 2.1.1.7.4 suspension quantitative bactericidal test (2002 edition of Disinfection Technical Specifications), neutralizer was prepared: 2.1% lecithin+2.0% glucose+0.5% sodium thiosulfate+1.5% tween-80+0.5% peptone+1.2% sodium sulfite aqueous solution. C6-S—Cl (Example 1), C8-S—Cl (Example 3) and C10-S—Cl (Example 5) were diluted into 0.0015625% and 0.00078125% aqueous solutions, and the bactericidal experiment was carried out for 30 min to Escherichia coli.
as §1, with “solution.” for “solution. C6-S—Cl (Example 1),”, “3), C8-S—Br (Example 4)” for “3)”, “C8-S—NO3” for “C10-S—Cl”, “7)” for “5)”
Referring to 2.1.1.7.4 suspension quantitative bactericidal test (2002 edition of Disinfection Technical Specifications), neutralizer was prepared: 2.1% lecithin+2.0% glucose+0.5% sodium thiosulfate+1.5% tween-80+0.5% peptone+1.2% sodium sulfite aqueous solution. C8-S—Cl (Example 3), C8-S—NO3—Ag^+ (Example 3), C8-S—CI—Cu^2+ (ratio 1), C8-S—CI—Mn^2+ (ratio 2), C8-S—CI—Fe^3+ (ratio 3), AgNO3, CuCl2, MnCl2, and FeCl3 were dissolved to 0.0015625% and 0.00078125% aqueous solution.
Referring to 2.1.1.7.4 suspension quantitative bactericidal test (2002 edition of Disinfection Technical Specifications), neutralizer was prepared: 2.1% lecithin+2.0% glucose+0.5% sodium thiosulfate+1.5% tween-80+0.5% peptone+1.2% sodium sulfite aqueous solution. C8-S—Cl (Example 3), C8-S—NO3 (Example 7) and C8-S—NO3—Ag^+ (Example 3) were configured into 0.0015625%, 0.00078125% and 0.000390625% aqueous solutions.
Referring to 2.1.1.7.4 suspension quantitative bactericidal test (2002 edition of Disinfection Technical Specifications), neutralizer was prepared: 2.1% lecithin+2.0% glucose+0.5% sodium thiosulfate+1.5% tween-80+0.5% peptone+1.2% sodium sulfite aqueous solution. The bactericidal experiment was carried out on E. coli for 30 min by preparing the silver-ion complex Gemini quaternary ammonium salt (Example 3), C10 chlorinated sulfur-free Gemini quaternary ammonium salt (Comparative example 4) and uncomplex silver-ion Gemini quaternary ammonium salt (Comparative example 4) into 0.0015625%, 0.00078125% and 0.000390625% aqueous solutions.

[1] = Table 2, 0.00078125% aqueous solution, Escherichia coli
[2] = Table 2, 0.0015625% aqueous solution, Escherichia coli
[3] = Table 1, 0.00078125% aqueous solution, Escherichia coli
[4] = Table 1, 0.0015625% aqueous solution, Escherichia coli
[5] = Table 3, 0.00078125% aqueous solution, Escherichia coli
[6] = Table 3, 0.0015625% aqueous solution, Escherichia coli
[7] = Table 5, 0.000390625% aqueous solution, E. coli
[8] = Table 5, 0.00078125% aqueous solution, E. coli
[9] = Table 5, 0.0015625% aqueous solution, E. coli
[10] = Table 4, 0.000390625% aqueous solution, Escherichia coli
[11] = Table 4, 0.00078125% aqueous solution, Escherichia coli
[12] = Table 4, 0.0015625% aqueous solution, Escherichia coli

Structure (SMILES) | Treated (cfu/mL) [1] | sterilizing rate [1] [%] | Treated (cfu/mL) [2] [cfu/mL] | sterilizing rate [2] [%] | Treated (cfu/mL) [3] | sterilizing rate [3] [%] | Treated (cfu/mL) [4] | sterilizing rate [4] [%] | Treated (cfu/mL) [5] | sterilizing rate [5] | Treated (cfu/mL) [6] | sterilizing rate [6] | antibacterial performance (in words) (Escherichia coli) | other results
CCCCCCCCSCCC(=O)OCC[N+](C)(C)CCC[N+](C)(C)CCOC(=O)CCSCCCCCCCC [Example C8-S-Br] | 1.1 × 10^3 cfu/mL | >99.99 | 75 | >99.999 |  |  |  |  |  |  |  |  |  | 
CCCCCCCCSCCC(=O)OCC[N+](C)(C)CCC[N+](C)(C)CCOC(=O)CCSCCCCCCCC [Example C8-S-Cl] | 1.7 × 10^3 cfu/mL | >99.99 | 79 | >99.999 | 1.9 × 10^2 cfu/mL | >99.99 | 90 cfu/mL | >99.999 | 1.8 × 10^3 cfu/mL | >99.99% | 86 cfu/mL | >99.999% |  | bactericidal rate (Table 1, 0.0015625% and 0.00078125% aqueous solutions, Escherichia coli): above 99.99%; Treated (cfu/mL) [7]: 2.6 × 10^5 cfu/mL; sterilizing rate [7]: 99.985%; Treated (cfu/mL) [8]: 1.8 × 10^3 cfu/mL; sterilizing rate [8]: >99.99%; Treated (cfu/mL) [9]: 82 cfu/mL; sterilizing rate [9]: >99.999%
[Cl][Fe]([Cl])[Cl] [FeCl3, reference compound] |  |  |  |  |  |  |  |  | 6.2 × 10^8 cfu/mL | No bactericidal effect | 4.3 × 10^7 cfu/mL | No bactericidal effect | did not show any antibacterial performance | 
[Cl][Cu][Cl] [CuCl2, reference compound] |  |  |  |  |  |  |  |  | 4.9 × 10^8 cfu/mL | No bactericidal effect | 3.2 × 10^7 cfu/mL | No bactericidal effect | did not show any antibacterial performance | 
CCCCCCCCSCCC(=O)OCC[N+](C)(C)CCC[N+](C)(C)CCOC(=O)CCSCCCCCCCC [Example C8-S-NO3] | 1.4 × 10^2 cfu/mL | >99.999 | 13 | >99.999 |  |  |  |  |  |  |  |  |  | bactericidal rate (Table 2, 0.0015625% and 0.00078125% aqueous solutions, Escherichia coli): above 99.999%; Treated (cfu/mL) [10]: 4.5 × 10^4 cfu/mL; sterilizing rate [10]: >99.99%; Treated (cfu/mL) [11]: 2.5 × 10^2 cfu/mL; sterilizing rate [11]: >99.99%; Treated (cfu/mL) [12]: 13 cfu/mL; sterilizing rate [12]: >99.999%
O=[N+]([O-])[O-].[Ag+] [AgNO3, reference compound] |  |  |  |  |  |  |  |  | 1.3 × 10^8 cfu/mL | No bactericidal effect | 2.2 × 10^7 cfu/mL | No bactericidal effect | did not show any antibacterial performance | 
CCCCCCCCCC(=O)OCC[N+](C)(C)CCC[N+](C)(C)CCOC(=O)CCCCCCCCC [Example C10-Cl, reference compound] |  |  |  |  |  |  |  |  |  |  |  |  |  | Treated (cfu/mL) [7]: 4.3 × 10^5 cfu/mL; sterilizing rate [7]: 99.978%; Treated (cfu/mL) [8]: 3.5 × 10^3 cfu/mL; sterilizing rate [8]: >99.99%; Treated (cfu/mL) [9]: 1.2 × 10^2 cfu/mL; sterilizing rate [9]: >99.999%
CCCCCCCCCCSCCC(=O)OCC[N+](C)(C)CCC[N+](C)(C)CCOC(=O)CCSCCCCCCCCCC [Example C10-S-Cl] |  |  |  |  | 4.6 × 10^4 cfu/mL | 99.841 | 5.8 × 10^2 cfu/mL | >99.99 |  |  |  |  |  | 
CCCCCCSCCC(=O)OCC[N+](C)(C)CCC[N+](C)(C)CCOC(=O)CCSCCCCCC [Example C6-S-Cl] |  |  |  |  | 4.0 × 10^5 cfu/mL | 98.621 | 3.2 × 10^3 cfu/mL | 99.989 |  |  |  |  |  | 
[Cl][Mn][Cl] [MnCl2, reference compound] |  |  |  |  |  |  |  |  | 8.9 × 10^7 cfu/mL | No bactericidal effect | 2.3 × 10^7 cfu/mL | No bactericidal effect | did not show any antibacterial performance | 
